Measured values published in patent publication US20130189358A1, “SAXAGLIPTIN PHARMACEUTICAL FORMULATIONS” (priority 2012, published 2013).
Where a name gives a salt, the structure may show the parent alone.

Assay: Impurity levels 30 days after tablet manufacture (storage stability)
Format: physicochemical
Conditions: 30 days after manufacture, storage at RT (15-29° C.) and NMT 67% RH; % wt impurity
Experimental: As used herein, unless indicated otherwise, the amount of saxagliptin cyclic amidine in the dosage forms following manufacture of the pharmaceutical dosage forms are measured following storage for 30 days at room temperature conditions (typically manufacture (following storage at room temperature (i.e. typically a temperature of between 15-29° C.), and at a relative humidity of not more than 67%.
Measurements of % wt impurities herein (oxamidine, cyclic amidine, etc) are taken 30 days after manufacture of the formulations [storage at ambient conditions, i.e. room temperature (RT) of between 15-29° C. and not more than 67% relative humidity (RH)].
Formulation #1 Excluding Cosmetic Coating—Analytical Data (30 Days after Tablet Manufacture)

## N#C[C@@H]1C[C@@H]2C[C@@H]2N1C(=O)[C@@H](N)C12CC3CC(CC(O)(C3)C1)C2 [Saxagliptin HCl, (1S,3S,5S)-2-((2S)-2-amino-2-(3-hydroxyadamantan-1-yl)-acetyl)-2-azabicyclo[3.1.0]hexane-3-carbonitrile]
  Cyclic Amidine level: <0.03%
  Greatest Unknown Impurity level: 0.19%
  Oxamidine level: <0.03%
  Total Impurity level: 0.23%
